Assay results from article PMC4565196 (Biochimica et biophysica acta, 2014).

Assays:
[1] = biological target: A2a–adenosine receptors; conditions: high affinity fluorescent agonist; cited from earlier work
[2] = tested on: A2AR single and double Cys-to-Ala variants; test: Fluorescent-ligand binding to the A2AR variants; set-up: species or system human; conditions: HEK-293 cells, untagged A2AR constructs, 70 nM FITC-APEC, 1 h at 37 °C

In the case of CCNC(=O)[C@H]1O[C@@H](n2cnc3c(N)nc(NCCc4ccc(CCC(=O)NCCNC(=S)Nc5ccc6c(c5)C(=O)OC6(c5ccc(O)cc5)c5ccc(O)cc5)cc4)nc32)[C@H](O)[C@@H]1O [FITC-APEC, 2-[2-[4-[2-[2-[1,3-Dihydro-1,1-bis (4-hydroxyphenyl)-3-oxo-5-isobenzofuranthioureidyl]ethylaminocarbonyl]ethyl]phenyl]ethylamino]-5N′-ethylcarboxamidoadenosine], the Kd [1] is listed as 57 nM and the “fluorescent ligand binding at the cell surface” value [2] is listed as “capable of binding”.
